According to paper PMC5640156 (Journal of the American Chemical Society, 2017):
Substitutions are numbered along the chain they refer to.

T1: P450cam (Pseudomonas putida, UniProt P00183, R187A)
T1 sequence (P00183 2-415 R187A): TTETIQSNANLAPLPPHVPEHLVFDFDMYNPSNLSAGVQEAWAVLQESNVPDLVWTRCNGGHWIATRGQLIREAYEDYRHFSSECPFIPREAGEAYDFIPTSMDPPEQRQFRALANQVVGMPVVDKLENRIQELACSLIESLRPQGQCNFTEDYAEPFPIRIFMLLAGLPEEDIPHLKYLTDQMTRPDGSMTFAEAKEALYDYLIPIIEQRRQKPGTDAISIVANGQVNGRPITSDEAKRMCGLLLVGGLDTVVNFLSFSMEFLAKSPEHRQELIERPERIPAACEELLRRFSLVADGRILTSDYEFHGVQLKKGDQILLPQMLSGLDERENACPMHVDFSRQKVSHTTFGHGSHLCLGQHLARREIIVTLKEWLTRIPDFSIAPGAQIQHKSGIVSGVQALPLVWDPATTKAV

T2: R186A mutant of cytochrome P450cam (Pseudomonas putida, UniProt P00183 2-415, R186A)
T2 sequence: T1 sequence (P00183 2-415 R187A) with R186A

B1: putidaredoxin (natural protein, Pseudomonas putida)
chain: MSKVVYVSHDGTRRELDVADGVSLMQAAVSNGIYDIVGDCGGSASCATCHVYVNEAFTDKVPAANEREIGMLECVTAELKPNSRLCCQIIMTPELDGIVVDVPDRQW

Key:
[1] = molecular target: T1, P450cam; test: isothermal titration calorimetry; type: binding
[2] = molecular target: T2, R186A mutant of cytochrome P450cam; test: ITC

| Molecule | Kd [1] | Kd [2] |
| --- | --- | --- |
| CC1(C)[C@@H]2CC[C@@]1(C)C(=O)C2 [D-camphor] | 32.2 ± 4 µM | – |
| B1 | – | 22.1 µM |
